Among the test systems are U-251; SNB-19; TK-10; Malme-3M; HCT-15; MOLT-4; SR; SN12C; OVCAR-3; MDA-N; NCI/ADR-RES; HT-29; K562; CCRF-CEM; RPMI-8226; IGROV-1; NCI-H226; OVCAR-8; LOX IMVI; HCC 2998.
Test in all cases: NCI tumour cell line growth inhibition, 48 h

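Test compounds were applied to cells in 96-well plates for 48 hours at 5 doses. Here, GI50 denotes the concentration required for 50% inhibition of growth.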 Calls of active or inactive are those of the source. Cut-off read from the data, not from the text of the source: active = GI50 up to about 1.1 µM and inactive = higher.

Regarding `CN1CCC2(c3ccccc3)CC(=O)/C(=C/c3ccc(Cl)c(Cl)c3)C1C2.[O-][Cl+3]([O-])([O-])O` (configuration not stated), the GI50 was 1.82 µM (inactive) with U-251; 2.3 µM (inactive) with SNB-19; 3.71 µM (inactive) with TK-10; 11.5 µM (inactive) in the assay on Malme-3M; 2.14 µM in the assay with HCT-15; 2.6 µM (inactive) with MOLT-4. Also, the GI50 in the assay on SR is 0.968 µM (active); in the assay on SN12C it was 1.85 µM (inactive); in the assay on OVCAR-3 it was 2.9 µM (inactive); in the assay with MDA-N, 4.42 µM (inactive); in the assay with NCI/ADR-RES it was 2.78 µM (inactive); in the assay on HT-29, 1.95 µM (inactive). Also, the GI50 in the assay on K562 was 2.52 µM (inactive); with CCRF-CEM it was 2.02 µM (inactive); in the assay on RPMI-8226, 2.29 µM (inactive); in the assay on IGROV-1 it was 1.95 µM (inactive); in the assay on NCI-H226, 2.09 µM (inactive); in the assay on OVCAR-8 it was 2.21 µM (inactive). Further, the GI50 with LOX IMVI is 1.71 µM (inactive).
For `Cc1cc(C)c(N[S+]([O-])c2cccc(Cl)c2)c(C)c1` (configuration not stated), the GI50 was > 100 µM (inactive) with U-251; > 100 µM (inactive) with SNB-19; > 100 µM (inactive) in the assay on TK-10; > 100 µM (inactive) in the assay with Malme-3M; greater than 100 µM in the assay on HCT-15; > 100 µM (inactive) in the assay with MOLT-4. Moreover, the GI50 with SR, in the assay on SN12C, in the assay with OVCAR-3, with MDA-N, in the assay with NCI/ADR-RES and in the assay on HT-29 was > 100 µM (inactive) each time. Also, the GI50 in the assay with K562, in the assay with CCRF-CEM, in the assay on RPMI-8226, in the assay with NCI-H226 and in the assay with OVCAR-8 was > 100 µM (inactive) in each case.
Consider `Cc1cc(C)nc(NC(=S)Nc2ccccc2Cl)c1`, for which the GI50 is > 100 µM (inactive) in the assay on U-251; > 100 µM (inactive) in the assay with SNB-19; > 100 µM (inactive) in the assay with TK-10; > 100 µM (inactive) with Malme-3M; greater than 100 µM with HCT-15; > 100 µM (inactive) in the assay on MOLT-4. Further, the GI50 with SR, in the assay with SN12C, in the assay with OVCAR-3, with MDA-N, in the assay with NCI/ADR-RES and with HT-29 was > 100 µM (inactive) in each case. The GI50 in the assay with K562, with CCRF-CEM, in the assay with RPMI-8226, with IGROV-1, with NCI-H226 and in the assay on OVCAR-8 was > 100 µM (inactive) throughout. The GI50 with LOX IMVI is > 100 µM (inactive).
With `C[N+](C)(C)CC(=O)N/N=C\c1c(O)ccc2ccccc12`, the GI50 in the assay on U-251 is 21.4 µM (inactive); with SNB-19, 63.4 µM (inactive); in the assay with TK-10, 28.2 µM (inactive); in the assay with Malme-3M it was 11.9 µM (inactive); in the assay with HCT-15 it was 27.7 µM; with MOLT-4, 9.08 µM (inactive). The GI50 is 33.2 µM (inactive) with SR; 32.2 µM (inactive) with SN12C; 35.9 µM (inactive) in the assay with OVCAR-3; 42.9 µM (inactive) in the assay with MDA-N; 33.7 µM (inactive) in the assay on NCI/ADR-RES; > 100 µM (inactive) in the assay on HT-29. Besides, the GI50 is 31.9 µM (inactive) with K562; 27.8 µM (inactive) in the assay on CCRF-CEM; 32.1 µM (inactive) in the assay with RPMI-8226; 20 µM (inactive) with IGROV-1; 21 µM (inactive) in the assay with NCI-H226; 26.3 µM (inactive) with OVCAR-8. Moreover, the GI50 in the assay on LOX IMVI is 32.7 µM (inactive).
For `CC1=CC(=O)/C(=C/NC(=S)NCCc2ccccc2)C(=O)O1`, the GI50 in the assay on U-251 was > 100 µM (inactive); in the assay with SNB-19 it was > 100 µM (inactive); in the assay with TK-10 it was 6.44 µM (inactive); in the assay with HCT-15 it was greater than 100 µM; in the assay with MOLT-4, > 100 µM (inactive); in the assay with SN12C, > 100 µM (inactive). Moreover, the GI50 with OVCAR-3, in the assay on MDA-N, in the assay with NCI/ADR-RES, in the assay on HCC 2998, with HT-29 and in the assay on IGROV-1 was > 100 µM (inactive) each time. The GI50 in the assay on NCI-H226 was > 100 µM (inactive); with OVCAR-8, > 100 µM (inactive); in the assay with LOX IMVI, 30.1 µM (inactive).
Consider `Cc1cc2c(cc1-c1cc3c(cc1C)C(C(C)C)=C(O)C(=O)/C3=C\Nc1c3ccccc3nc3ccccc13)/C(=C/Nc1c3ccccc3nc3ccccc13)C(=O)C(O)=C2C(C)C`, for which the GI50 was 4.02 µM (inactive) in the assay with U-251; 3.82 µM (inactive) in the assay on SNB-19; 2.2 µM (inactive) in the assay on Malme-3M; 3.85 µM with HCT-15; 3.27 µM (inactive) with MOLT-4; 3.91 µM (inactive) with SR. In addition, the GI50 is 4.47 µM (inactive) in the assay with SN12C; 3.47 µM (inactive) with OVCAR-3; 4.06 µM (inactive) with MDA-N; 2.59 µM (inactive) with NCI/ADR-RES; 1.54 µM (inactive) in the assay with HT-29; 3.51 µM (inactive) with CCRF-CEM. Further, the GI50 is 4.52 µM (inactive) in the assay with RPMI-8226, 2.64 µM (inactive) with IGROV-1, 1.26 µM (inactive) in the assay on NCI-H226 and 2.3 µM (inactive) in the assay with OVCAR-8.
Consider `NC1=CN(CCCO)C2=N/C(=C\c3ccco3)C(=O)N12`, for which the GI50 in the assay with U-251 is > 100 µM (inactive); in the assay with SNB-19, > 100 µM (inactive); in the assay on TK-10, > 100 µM (inactive); with Malme-3M, > 100 µM (inactive); with HCT-15, greater than 100 µM; in the assay on MOLT-4, > 100 µM (inactive). For the same molecule, the GI50 with SN12C, with OVCAR-3, with MDA-N, in the assay on NCI/ADR-RES, in the assay on HCC 2998 and with HT-29 was > 100 µM (inactive) throughout. In addition, the GI50 in the assay on K562, in the assay on CCRF-CEM, with RPMI-8226, with IGROV-1, with NCI-H226 and with OVCAR-8 was > 100 µM (inactive) throughout. Moreover, in the assay on LOX IMVI, the GI50 was > 100 µM (inactive).
Regarding `CC(=O)c1c(O)c(C)c(O)c(Cc2c(O)c3c(c(C(=O)/C=C/c4ccccc4)c2O)OC(C)(C)C=C3)c1O` [ROTTLERIN], the GI50 in the assay on U-251 was 2.31 µM (inactive); in the assay on SNB-19, 2.34 µM (inactive); in the assay on TK-10, 2.98 µM (inactive); with Malme-3M, 2.84 µM (inactive); in the assay with HCT-15, 2.52 µM; in the assay with MOLT-4, 1.89 µM (inactive). Further, the GI50 is 2.21 µM (inactive) with SN12C; 2.7 µM (inactive) in the assay with OVCAR-3; 3.14 µM (inactive) in the assay on MDA-N; 2.53 µM (inactive) in the assay with NCI/ADR-RES; 2.23 µM (inactive) in the assay with HCC 2998; 3.24 µM (inactive) with HT-29. For the same molecule, the GI50 was 1.07 µM (active) in the assay with K562; 2.99 µM (inactive) in the assay with CCRF-CEM; 1.79 µM (inactive) in the assay with RPMI-8226; 3.1 µM (inactive) with IGROV-1; 3.45 µM (inactive) in the assay on NCI-H226; 3.08 µM (inactive) in the assay with OVCAR-8. Moreover, the GI50 in the assay with LOX IMVI was 2.86 µM (inactive).
For `CCOC(=O)c1cc(C2=C(S)N(CC(C)CC)CC2)c(C(=O)CC)[nH]1` (configuration not stated), the GI50 was 13.1 µM (inactive) in the assay with U-251; 19.1 µM (inactive) with SNB-19; 15.3 µM (inactive) in the assay with TK-10; 11.1 µM (inactive) in the assay with Malme-3M; 10.2 µM with HCT-15; 4.56 µM (inactive) in the assay with MOLT-4. Besides, the GI50 with SR was 5.96 µM (inactive); in the assay on SN12C, 18.7 µM (inactive); with MDA-N, 14.3 µM (inactive); in the assay with NCI/ADR-RES it was 29.5 µM (inactive); in the assay on HT-29, 22.4 µM (inactive); with K562, 10 µM (inactive). Besides, the GI50 in the assay with CCRF-CEM was 4.28 µM (inactive); with RPMI-8226, 5.36 µM (inactive); with IGROV-1 it was 20.3 µM (inactive); in the assay on NCI-H226, 23.5 µM (inactive); with OVCAR-8, 21.5 µM (inactive); with LOX IMVI, 17.4 µM (inactive).
For the molecule `Cc1cc(C)c2c(c1)C1=NCCN1C2(O)c1ccc(Cl)cc1` (configuration not stated), the GI50 in the assay with U-251 is 17.7 µM (inactive); in the assay on SNB-19, 16.2 µM (inactive); in the assay with TK-10, 2.79 µM (inactive); in the assay with HCT-15, 17.2 µM; in the assay on MOLT-4, 37.6 µM (inactive); in the assay on SR, 20.1 µM (inactive). For the same molecule, the GI50 in the assay with SN12C was 16.5 µM (inactive); in the assay with OVCAR-3, 15.5 µM (inactive); in the assay with MDA-N it was 15.1 µM (inactive); with NCI/ADR-RES, 14.4 µM (inactive); with HT-29, 16.5 µM (inactive); in the assay with K562, 19.1 µM (inactive). The GI50 in the assay with CCRF-CEM is 17.2 µM (inactive); in the assay with RPMI-8226 it was 13.6 µM (inactive); in the assay on IGROV-1 it was 14.2 µM (inactive); with OVCAR-8 it was 15.8 µM (inactive); with LOX IMVI it was 29.3 µM (inactive).
On to `Cc1ccc(C2(c3ccc(F)cc3)OC(=O)c3ccccc32)c(O)c1` (configuration not stated), for which the GI50 in the assay on U-251 was 18.5 µM (inactive); with SNB-19, 16.6 µM (inactive); in the assay on TK-10 it was 15.1 µM (inactive); in the assay with Malme-3M it was > 10 µM (inactive); in the assay on HCT-15, 15.2 µM; in the assay on MOLT-4 it was 10.8 µM (inactive). Besides, the GI50 in the assay on SN12C is 14.7 µM (inactive); with OVCAR-3, 3.56 µM (inactive); in the assay with MDA-N, 12 µM (inactive); in the assay with NCI/ADR-RES, 16.1 µM (inactive); with HCC 2998, 22.4 µM (inactive); with HT-29, 17.7 µM (inactive). The GI50 in the assay on K562 is 14.2 µM (inactive); with CCRF-CEM, 18.7 µM (inactive); in the assay with RPMI-8226 it was 16.4 µM (inactive); in the assay on IGROV-1, 14.4 µM (inactive); with NCI-H226 it was 15 µM (inactive); with OVCAR-8 it was 18.2 µM (inactive). Further, the GI50 in the assay on LOX IMVI is 13.9 µM (inactive).

Source of the values: ChEMBL document CHEMBL1201862, “PubChem BioAssay data set” (2004).
